Laboratory results as given in ChEMBL document CHEMBL3988181, “GlaxoSmithKline Published Kinase Inhibitor Set 2 Onchocerca lienalis Screening Data”.

Experiment: GSK PKIS2: Screen against O. lienalis microfilariae, single point, at 3.1uM to assess reduction in motility. Compounds were also tested for cytotoxicity against Rhesus Monkey LLCMK2 cells.
Type: functional, Onchocerca lienalis, LLC-MK2
Conditions: CELL_LINE LLCMK2; CELL_SUPPLIER ECACC; CONC 3.1 uM; ORGANISM_SUPPLIER Extracted from peri-umbilical skin obtained from naturally infected cattle in the UK; temperature 37 degree C

| SMILES | MOTILITY REDUCTION/CYTOTOXICITY [%] |
| --- | --- |
| COc1ccc(-n2cnc3c(N)ncnc32)cc1 | 0 |
| CNc1nccc(-c2ccc3c(N)n[nH]c3c2)n1 | 0 |
| O=C(NCCNc1ccnc(Nc2ccc(F)cc2)n1)c1cc2ccccc2s1 | 66.7 |
| CN(C)CCNS(=O)(=O)c1ccc(-c2ccnc3[nH]ccc23)cc1 | 26.7 |
| Cc1cccc2c(-c3ccncn3)c(-c3ccc(F)cc3)nn12 | 13.4 |
| O=C(Nc1ccccc1F)NC1CCN(c2ccnc(Nc3ccc(F)cc3)n2)C1 (stereo unspecified) | 0 |
| O=C(Nc1ccc(Oc2ccc3[nH]c(NC(=O)c4ccco4)nc3c2)cc1)Nc1cc(C(F)(F)F)ccc1F | 0 |
| Cc1cccc(-c2nc(Nc3ccc4ncsc4c3)c3ccccc3n2)n1 | 100 |
| CC(=O)N1CCN(c2ccc(Nc3nccc(-c4sc(C(C)C)nc4-c4cccc(NS(=O)(=O)c5cccc(Cl)c5)c4)n3)cn2)CC1 | 0 |
| Cc1cccc(-c2nc(Nc3ccc4c(cnn4C)c3)c3ccccc3n2)n1 | 100 |
| Cc1cc(-c2c(-c3ccc(F)cc3)ncn2CCCN2CCOCC2)nc(N)n1 | 0 |
| Fc1cc(Cl)ccc1Nc1ccnc2cc(I)ccc12 | 33.4 |
| Fc1ccc(-c2ncn(CCCN3CCOCC3)c2-c2cccnc2)cc1 | 0 |
| Cc1cccc(-c2cc(-c3c[nH]nc3-c3ccccn3)ccn2)c1 | 0 |
| Cc1cc(N2CCC(NS(=O)(=O)c3ccc(F)cc3)CC2)nc(Nc2cccc(C#N)c2)n1 | 0 |
| NC(=O)c1cccc(Nc2nccc(Nc3ccc(Oc4cccc(Cl)c4)c(Cl)c3)n2)c1 | 20 |
| CN1CCN(CCCNc2nccc(-c3c(-c4ccc(F)cc4)nn4cc(C(F)(F)F)ccc34)n2)CC1 | 0 |
| CN1CCN(Cc2ccc(NC(=O)Nc3ccc(N(C)c4ccnc(Nc5ccc(CS(C)(=O)=O)cc5)n4)cc3)cc2)CC1 | 100 |
| FC(F)(F)c1cc(Br)cc(Nc2nccc(-c3cnn4ncccc34)n2)c1 | 46.7 |

| SMILES | MOTILITY REDUCTION/CYTOTOXICITY [%] |
| --- | --- |
| CCCC(=O)Nc1n[nH]c2ncccc12 | 20 |
| COc1cccc(CNC(=O)NC2CCN(c3ccnc(Nc4cc(OC)c(OC)c(OC)c4)n3)C2)c1 (stereo unspecified) | 66.7 |
| COc1ccc(COc2cc(-n3cnc4ccccc43)sc2C(N)=O)cc1 | 0 |
| CS(=O)(=O)CCNCc1nc(-c2ccc3ncnc(Nc4ccc(OCc5cccc(F)c5)c(Cl)c4)c3c2)cs1 | 0 |
| FC(F)(F)c1ccc(/C=C/c2cncnc2Nc2ccc3[nH]c(Cc4ccccc4)nc3c2)cc1 | 100 |
| Nc1n[nH]c2ncc(-c3ccccc3)cc12 | 0 |
| CC(C)(C)OC(=O)NC1CCCN(c2cc(-c3ccc4c(N)n[nH]c4c3)nc(N)n2)C1 (stereo unspecified) | 0 |
| CN1C(=O)C(Nc2cc(Cl)c(O)c(Cl)c2)=C(c2ccc(Cl)cc2)C1=O | 0 |
| O=c1[nH]ccc2nc(N[C@@H]3CCNC3)nc(Nc3cc(Cl)cc(Cl)c3)c12 | 100 |
| NCCCC(NC(=O)c1cc(Br)c(-c2ccnc3[nH]ccc23)s1)c1ccccc1 (stereo unspecified) | 0 |
| N#Cc1ccc(CCNc2nccc(-c3cccc(CN4CCNCC4)c3)n2)cc1 | 0 |
| C[C@@H](Oc1cc(-n2cnc3cc(-c4cnn(C)c4)ccc32)sc1C(N)=O)c1ccccc1Cl | 46.7 |
| O=C(NCC1CC1)c1ccc(-c2cc(C(=O)NC3CC3)ccc2F)cc1 | 0 |
| O=C1NC(=O)C(c2ccccc2Cl)=C1Nc1cccc(C(=O)O)c1 | 0 |
| COc1cccc(C2=C(Nc3cc(Cl)c(O)c(Cl)c3)C(=O)NC2=O)c1 | 0 |
| COc1ccc(C2=C(Nc3cccc(O)c3)C(=O)NC2=O)cc1 | 13.4 |
| O=C(Nc1n[nH]c2nc(-c3ccccc3)c(Br)cc12)C1CC1 | 20 |
| CCC(CC)(CC)n1cnc2c(N)ncnc21 | 0 |
| COc1cccc(NC(=O)NC2CCN(c3ccnc(Nc4ccc(F)cc4)n3)C2)c1 (stereo unspecified) | 13.4 |

| SMILES | MOTILITY REDUCTION/CYTOTOXICITY [%] |
| --- | --- |
| c1ccc(-c2n[nH]cc2-c2ccnc(-c3ccc(CN4CCOCC4)cc3)c2)nc1 | 40 |
| COc1ccc(CNC(=O)NC2CCN(c3ccnc(Nc4ccc(OC)cc4)n3)C2)cc1 (stereo unspecified) | 0 |
| COc1ccc(C[C@@H](CN)NC(=O)c2cc(Br)c(-c3ccnc4[nH]ccc34)s2)cc1 | 33.4 |
| CSc1nccc(-c2c(-c3ccc(F)cc3)ncn2CCCN2CCOCC2)n1 | 33.4 |
| CC(C)c1nc(-c2cccc(NS(=O)(=O)c3c(F)cccc3F)c2)c(-c2ccnc(Nc3ccc(N4CCOCC4)nc3)n2)s1 | 0 |
| O=C(Nc1c(F)cccc1F)c1cc(C(=O)c2ccccc2F)c[nH]1 | 0 |
| Cc1c(Cn2c(C)nn3c(=O)cc(N4CCOC(C)C4)nc23)cccc1C(F)(F)F (stereo unspecified) | 0 |
| COc1cccc(NC(=O)Nc2ccc(C)c(-c3ccc(C(=O)Nc4ccncc4)cc3)c2)c1 | 100 |
| C[C@@H](Oc1cc(-n2cnc3ccc(NC(=O)NC(C)(C)C)cc32)sc1C(N)=O)c1ccccc1Cl | 60 |
| Cc1cccc(-c2nc(C)cc(Nc3ccncc3)n2)n1 | 0 |
| CN(C)CC(O)COc1ccc(Nc2nccc(-c3cnn4nc(N5CCOCC5)ccc34)n2)cc1 (stereo unspecified) | 0 |
| FC(F)(F)c1cc(Nc2nccc(-c3c(-c4ccc(Cl)cc4)nn4ncccc34)n2)ccc1Cl | 20 |
| Cc1ccc(Nc2ccnc(Nc3ccc(C)c(F)c3)n2)cc1O | 33.4 |
| O=C(NC1CCN(c2ccnc(Nc3ccc(F)cc3)n2)C1)c1cc2ccccc2s1 (stereo unspecified) | 0 |
| CC(C)Oc1ccc2c(-c3ccnc(Nc4ccc(N5CCN(C)CC5)cc4)n3)cnn2n1 | 0 |
| COc1ccc(Nc2nccc(N3CCC(NC(=O)Nc4cc(C)ccc4C)C3)n2)cc1 (stereo unspecified) | 0 |
| O=C(Nc1n[nH]c2cc(-c3cccc(F)c3)ccc12)C1CC1 | 0 |
| COc1cc(Nc2nccc(N3CCC(NC(=O)c4cc5ccccc5s4)C3)n2)cc(OC)c1OC (stereo unspecified) | 0 |
